# Source: patent US10905683B2, “Compositions and uses of amidine derivatives” (BIOCRYST PHARMACEUTICALS, INC., priority 2014, dated 2021)
# Several values for one entry are separate records, joined by “and”; a condition that tells them apart may be missing. Equal values may be shown once. Read-outs that look alike come from different tables or passages of the source.
# Assays:
# [1] = Caco-2 bi-directional permeability, absence and presence of P-gp inhibitor verapamil; type: in vitro ADME; conditions: human; Caco-2, P-gp inhibitor absent
# Procedure: (§1) The Caco-2 bi-directional permeability of the compound of Example 1 was evaluated in the absence and presence of a known P-gp inhibitor, verapamil.
# [2] = test system: Caco-2; assay: as above; type: in vitro ADME
# Procedure: as §1
# [3] = Further solubility studies in solvents, mixtures and surfactants; type: physicochemical; conditions: thermodynamic from solid
# Procedure: The solubility of the compound of Example 1 in a range of organic solvents, mixtures thereof, and some including surfactants, was measured. […] solubility assays were performed by the sequential addition of the compound of Example 1 to an appropriate organic solvent while stirring vigorously until a precipitate is formed. The resulting suspension is then shaken for 24 hours at room temperature, filtered and the resulting solution was analyzed by appropriate analytical method. Quantitation was performed by comparison of the concentrations of the resulting solution of the compound 1 to a single point calibration curve using a solution of the reference standard. The results are shown in Table 8, in which all percentages are expressed by weight of the total weight of excipients, i.e. excluding the active and the following abbreviations are used: […]
# [4] = Aqueous solubility assay in buffer and simulated gastric/intestinal fluids
# Procedure: The target concentration in each solution was 100 μM. […] The aqueous solutions were added (1 mL) to the dried samples and mixed at 400 rpm at 37° C. on an orbital plate shaker. […] Samples were prepared in triplicate. Testosterone and verapamil were used as reference compounds.
# [5] = Absorption enhancement studies in the rat, intragastric dosing, plasma concentration
# Procedure: Based on the solubility data that was reported previously, combinations of solvents were evaluated to study the effect of formulation composition on oral absorption.
# Combinations of solvents and surfactants were evaluated in rat, dog and nonhuman primate models at levels appropriate for a potential human oral pharmaceutical product.
# The early studies in rats used aqueous dosing solutions.
# These formulations included a variety of solvents and co-solvents for evaluation to maximize absorption and form a physicochemically stable liquid. Unless otherwise indicated, the percentages are expressed by weight as a proportion of the total weight of all excipients present in the mixture (i.e. excluding the active ingredient).
# [6] = pH-solubility curve in citrate-phosphate buffers; type: physicochemical; conditions: free base, FIG. 1
# Description: A pH-solubility curve was generated for the compound of Example 1 in citrate-phosphate buffers to evaluate the effect of pH on solubility of the free base material.
# [7] = pKa by UV-metric and potentiometric titration; type: physicochemical
# Description: The pKa experiments have been performed by both UV-metric (in aqueous) and potentiometric method (in methanol cosolvents). Nine titrations have been performed for the compound, all from low to high pH (2.0-12.0).
# [8] = Solubility in organic solvents; type: physicochemical
# Procedure: The solubility of the compound of Example 1 in a range of organic solvents was measured. Solubility assays were performed by the sequential addition of the compound of Example 1 to an appropriate organic solvent while stirring vigorously until a precipitate is formed. The resulting suspension is then shaken for 24 hours at room temperature, filtered and the resulting solution was analyzed by appropriate analytical method. Quantitation was performed by comparison of the concentrations of the resulting solution of the compound of Example 1 to a single point calibration curve using a solution of the reference standard.
# [9] = rat, intragastric 5 mg/Kg, aqueous dosing solution, individual rats 1-4
smiles,measurement,setting,value
"C=Cc1cc(C(=O)Nc2ccc(C(=N)N)cc2)c(-c2ccc(C(=O)NCC3CC3)nc2C(=O)O)cc1OC [Example 1, 3-[2-(4-carbamimidoyl-phenylcarbamoyl)-5-methoxy-4-vinyl-phenyl]-6-(cyclopropylmethyl-carbamoyl)-pyridine-2-carboxylic acid]",Papp A→B,[1],0.5 ×10⁻⁶ cm/s
same,Papp B→A,[1],0.5 ×10⁻⁶ cm/s
same,efflux ratio,[1],0.9
same,permeability class,[2]; Caco-2 bi-directional,low permeability compound
same,P-gp substrate,[2]; Caco-2 with and without verapamil,does not appear to be a substrate of P-gp
same,solubility at 24 h,"[3]; 2.5% SLS in 97.5% PEG400, organic solvent or mixture, 2.5% SLS in 97.5% PEG400, read-out: Example 1 Solubility After 24 hrs",31.3 mg/mL
same,solubility at 24 h,"[3]; 2.5% SLS in 97.5% PEG600, organic solvent or mixture, 2.5% SLS in 97.5% PEG600, read-out: Example 1 Solubility After 24 hrs",25.9 mg/mL
same,solubility at 24 h,"[3]; 2.5% SLS in 97.5% PG, organic solvent or mixture, 2.5% SLS in 97.5% PG, read-out: Example 1 Solubility After 24 hrs",> 100 mg/mL
same,solubility at 24 h,"[3]; 2.5% SLS/8% EtOH/10% PG in 79.5% PEG600, organic solvent or mixture, 2.5% SLS/8% EtOH/10% PG in 79.5% PEG600, read-out: Example 1 Solubility After 24 hrs",57.3 mg/mL
same,solubility at 24 h,"[3]; 6% EtOH/15% glycerin/79% water containing 0.3% Tween80, aqueous with cosolvent or surfactant or cyclodextrin, 6% EtOH/15% glycerin/79% water containing 0.3% Tween80, read-out: Example 1 Solubility After 24 hrs",0.3 mg/mL
same,solubility at 24 h,"[3]; 6% EtOH/15% glycerin/79% water, aqueous with cosolvent or surfactant or cyclodextrin, 6% EtOH/15% glycerin/79% water, read-out: Example 1 Solubility After 24 hrs",0.07 mg/mL
same,solubility at 24 h,"[3]; 8% EtOH/10% PG in 82% PEG600, organic solvent or mixture, 8% EtOH/10% PG in 82% PEG600, read-out: Example 1 Solubility After 24 hrs",61 mg/mL
same,solubility at 24 h,"[3]; 10% EtOH in 90% PEG400, organic solvent or mixture, 10% EtOH in 90% PEG400, read-out: Example 1 Solubility After 24 hrs",61.4 mg/mL
same,solubility at 24 h,"[3]; 10% EtOH in 90% PEG600, organic solvent or mixture, 10% EtOH in 90% PEG600, read-out: Example 1 Solubility After 24 hrs",61.4 mg/mL
same,solubility at 24 h,"[3]; 10% EtOH with 90% PG, organic solvent or mixture, 10% EtOH with 90% PG, read-out: Example 1 Solubility After 24 hrs",> 100 mg/mL
same,solubility at 24 h,"[3]; 20% PG in 80% PEG400, organic solvent or mixture, 20% PG in 80% PEG400, read-out: Example 1 Solubility After 24 hrs",52.9 mg/mL
same,solubility at 24 h,"[3]; 20% PG in 80% PEG600, organic solvent or mixture, 20% PG in 80% PEG600, read-out: Example 1 Solubility After 24 hrs",52.4 mg/mL
same,solubility at 24 h,"[3]; PG/PEG mixtures, organic solvent or mixture, some PG/PEG mixtures, read-out: solubility",50 to 60 mg/mL
same,solubility at 24 h,"[3]; mixtures of 90% or more propylene glycol, organic solvent or mixture, some mixtures composed of 90% or more propylene glycol, read-out: solubility",> 100 mg/mL
same,solubility at 24 h,"[3]; propylene glycol, organic solvent or mixture, Propylene Glycol, read-out: Example 1 Solubility After 24 hrs",> 150 mg/mL
same,solubility at 24 h,"[3]; propylene glycol, organic solvent or mixture, propylene glycol (PG), read-out: solubility",150 mg/mL
same,solubility at 24 h,"[4]; 37 °C, fassgf or other biorelevant, thermodynamic from solid, Observed Solubility, Target 100 μM, Fasted-State SGF, 24 hours",109 µM
same,solubility at 24 h,"[4]; 37 °C, fassgf or other biorelevant, thermodynamic from solid, Observed Solubility, Target 100 μM, Fed-State SGF, 24 hours",99 µM
same,solubility at 24 h,"[4]; 37 °C, fassif, thermodynamic from solid, Observed Solubility, Target 100 μM, Fasted-State SIF, 24 hours",111 µM
same,solubility at 24 h,"[4]; 37 °C, fessif, thermodynamic from solid, Observed Solubility, Target 100 μM, Fed-State SIF, 24 hours",119 µM
same,solubility at 24 h,"[4]; 37 °C, pH 7.4, aqueous buffer, thermodynamic from solid, Observed Solubility, Target 100 μM, 0.1M phosphate buffer pH 7.4, 37° C., 24 hours",118 µM
same,solubility at 24 h,"[4]; solubility, aqueous/physiological fluids",0.1 mg/mL
same,concentration at 0 min,"[5]; rat, in vivo, 5 mg/Kg, Plasma concentration, 0 min, intragastric 5 mg/Kg, aqueous dosing solution, individual rats 1-4",0 ng/mL
same,"Plasma concentration, 0 min",[5]; [9],0 ng/mL
same,"Plasma concentration, 30 min",[5]; [9],108 ng/mL and <10 ng/mL and 188 ng/mL and 23 ng/mL
same,"Plasma concentration, 1 hr",[5]; [9],88 ng/mL and <10 ng/mL and 130 ng/mL and 30 ng/mL
same,"Plasma concentration, 2 hr",[5]; [9],123 ng/mL and <10 ng/mL and 87 ng/mL and 27 ng/mL
same,"Plasma concentration, 4 hr",[5]; [9],134 ng/mL and <10 ng/mL and 99 ng/mL and 24 ng/mL
same,"Plasma concentration, 8 hr",[5]; [9],48 ng/ml and <10 ng/ml (2×) and 30 ng/ml
same,Gastrointestinal (GI) absorption,"[5]; rats, aqueous dosing solutions",very low or zero
same,effect of pH on aqueous solubility,[6],not a significant effect
same,pKa,"[7]; aqueous (UV-metric), methanol cosolvents (potentiometric), no higher pKa observed by potentiometric method, read-out: higher pKa as reported",> 11
same,pKa,"[7]; aqueous (UV-metric), methanol cosolvents (potentiometric), no lower pKa observed by potentiometric method, read-out: lower pKa as reported",< 3
same,pKa,"[7]; aqueous, UV-metric method, aqueous, read-out: lower pKa",2.31 ± 0.15
same,Saturated concentration of Example 1,"[8]; Dimethyl acetamide, 40% solvent in water",12.9 mg/mL
same,Saturated concentration of Example 1,"[8]; Dimethyl acetamide, 60% solvent in water",24.8 mg/mL
same,Saturated concentration of Example 1,"[8]; Ethanol, 40% solvent in water",5.9 mg/mL
same,Saturated concentration of Example 1,"[8]; Ethanol, 60% solvent in water",21.8 mg/mL
same,Saturated concentration of Example 1,"[8]; Ethanol, 100%",23.9 mg/mL
same,Saturated concentration of Example 1,"[8]; Glycerol, 100%",5.5 mg/mL
same,Saturated concentration of Example 1,"[8]; N-Methyl-2-pyrrolidone, 100%, not saturated",>11 (not saturated) mg/mL
same,Saturated concentration of Example 1,"[8]; Polyethylene glycol 400, 40% solvent in water",11.9 mg/mL
same,Saturated concentration of Example 1,"[8]; Polyethylene glycol 400, 60% solvent in water",18.6 mg/mL
same,Saturated concentration of Example 1,"[8]; Polyethylene glycol 400, 100%",21.2 mg/mL
same,Saturated concentration of Example 1,"[8]; Propylene glycol, 40% solvent in water",2.67 mg/mL
same,Saturated concentration of Example 1,"[8]; Propylene glycol, 60% solvent in water",27.9 mg/mL
same,Saturated concentration of Example 1,"[8]; Propylene glycol, 100%",>55 mg/mL
